According to patent EP0665223A1, “Antitumor agent, novel 3(2H)-pyridazinone derivatives and their preparation” (TAKEDA CHEMICAL INDUSTRIES, LTD., priority 1994, dated 1995):

Tests used:
[1] = tested on: pancreatic cancer cell strain PC-3; assay: Suppressing proliferation of PC-3 cells in vitro (MTT, number of living cells); type: cell-based; conditions: 96 h, PC-3, F-12K medium, incubated 4 days with test compound
Description: (§1) A cell suspension of pancreatic cancer cell AsPC-1 (20000/ml) in RPMI 1640 medium (Flow Laboratories) supplemented with 10% of inactivated fetal calf serum, 1 mM of sodium pyruvate and 25 mM of HEPES [2-{4-(2-hydroxyethyl)-1-piperazinyl}ethanesulfonic acid] was added to 96-well micro-culture plates (50ul/well). The culture plates were incubated at 37°C in a 5% CO₂ incubator. On the following day, the solution of each test compound dissolved in dimethylformamide and diluted (3-fold steps) was added (50 ul/well), which was incubated for further 3 days. The culture broth containing the test compounds was eliminated, and the cells were washed, to which was added a solution of MTT pigment, and the number of living cells was calculated [Tada et al. J. Immunol. Methods, 93 p.157 (1986)]. The number of cells in the control group containing no test compound was assumed to be 100%, and the respective ratios of cell numbers in groups containing the respective test compounds were calculated to thereby determine the concentrations (IC₅₀ value) of the respective test compounds necessary to suppress the number of living cells to 50% of that of the control group.
For the test of pancreatic cancer cell strain PC-3, the same method in the case of AcPC-1 was employed excepting the use of F-12K medium containing 10% inactivated fetal calf serum (Flow Laboratories) and change of the incubation period after adding the test compounds to 4 days, to thereby determine the IC₅₀ value (nm).

[2] = tested on: pancreatic cancer cell AsPC-1; assay: Suppressing proliferation of pancreatic cancer cell AsPC-1 in vitro (MTT, number of living cells); type: cell-based; conditions: Homo sapiens, ASPC1, 72 h, AsPC-1, RPMI 1640 medium, incubated 3 days with test compound
Description: as §1

[3] = tested on: human pancreatic carcinoma cells AsPC-1; assay: Suppressing proliferation of pancreatic carcinoma in vivo (AsPC-1 transplanted subcutaneously into nude mice, tumor volume); design: species or system Balb/c nude mice; conditions: once for two days during 14 days, tumor volume of treated group to control group
Description: The human pancreatic carcinoma cells AsPC-1 (3x10⁶cells) were transplanted subcutaneously into Balb/c nude mice (7 week old) at the flank. On 35th day after the transplantation, the tumor size was measured. Five mice (per group) with almost the same tumor size were employed for the experiment. These groups were respectively administered intraperitoneally with No. 1, 2 and 19 of the compounds of this invention dissolved in corn oil, once for two days during 14 days. On the day following the completion of administration, the tumor size was measured, and the tumor volume was calculated by the formula: Tumor volume = major axis x minor axis x minor axis x (1/2) [formula] . The ratio of the tumor volume in the treated group to that in a control group to which corn oil alone was administered was calculated as a proliferation ratio.

[4] = Dosage 16.7 mg/kg intraperitoneally in corn oil

SMILES | IC50 [1] [nM] | IC50 [2] [nM] | Proliferation ratio (%) [3, 4] [%] | Proliferation ratio (%) ([3]; Dosage 6.7 mg/kg intraperitoneally in corn oil)
CC(C)(C)c1ccc(COc2cnn(C(C)(C)C)c(=O)c2Cl)cc1 [Compound 19, 2-t-butyl-4-chloro-5-(4-t-butyl)benzyloxy-3(2H)pyridazinone] | < 1.52 | 180 | 29 | 
CC(C)(C)n1ncc(SCc2ccccc2)c(Cl)c1=O [Compound 2, 2-t-butyl-4-chloro-5-benzylthio-3 (2H)pyridazinone] | 120 | 440 | 48 | 
CC(C)(C)c1ccc(CSc2cnn(C(C)(C)C)c(=O)c2Cl)cc1 [Compound 1, 2-t-butyl-4-chloro-5-(4-t-butyl)benzylthio-3(2H)pyridanzine] | < 1.52 | 16 |  | 56
